This is an account of results in the supplement of paper PMC6723410.

The structures appear in SMILES notation.

For experiment [1], the system named is GUMC-403. As to the kind of experiment: viability at highest tested concentration (max response) relative to DMSO (% of DMSO control); higher = less cytotoxic. Particulars: library / dose series: MIPE library, 11-point 1:3 dilution; top concentration 46.1 µM; 48 h. The method in brief:
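Viability at the highest tested concentration is given relative to vehicle control. For this, conditionally reprogrammed patient-derived GUMC-403 papilloma cells at 700/well in 1536-well plates were exposed to 23 nL of pinned compound for 48 h. Luminescence from CellTiter-Glo was read on a ViewLux and scaled between empty wells (0%) and vehicle wells (100%).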

Experiment [2] deals with GUMC-403. As to the kind of experiment: AC50 for reduction of cell viability; higher = less potent. Conditions: 48 h.
Setting [3] is: library / dose series: MIPE library, 11-point 1:3 dilution.

Regarding `CC(C)C[C@H](NC(=O)[C@H](Cc1ccccc1)NC(=O)c1cnccn1)B(O)O`, the viability with GUMC-403 [1] worked out at 3.84. For the same compound, the “AC50 for reduction of cell viability” value with GUMC-403 [2] (setting [3]) was 0.264 µM; with GUMC-403 [2] (library / dose series: NPC library, 8-point 1:5 dilution), 0.15 µM.
For the compound `COC(=O)Nc1ccc(-c2nc(N3CCOCC3)c3cnn(C4CCN(C(=O)OC)CC4)c3n2)cc1`, the viability in the experiment on GUMC-403 [1] turned out to be 13.8. The “AC50 for reduction of cell viability” value in the experiment with GUMC-403 [2] (setting [3]) was determined as 0.0264 µM.
With `CC(=O)Nc1nc(C)c(-c2ccc(Cl)c([S+](=O)([O-])NCCO)c2)s1`, in the experiment on GUMC-403 [1], the viability came to 12.5. Also, the “AC50 for reduction of cell viability” value in the experiment on GUMC-403 [2] (setting [3]) amounted to 14.8 µM.
For `Nc1cccc(-c2cc3c(Oc4cccc(O)c4)ncnc3[nH]2)c1`, the viability in the experiment with GUMC-403 [1] worked out at 58. Further, in the experiment with GUMC-403 [2] (setting [3]), the “AC50 for reduction of cell viability” value is 8.33 µM.
`NC(=O)[C@@H](CCC(F)(F)F)N(Cc1ccc(-c2ncon2)cc1F)[S+](=O)([O-])c1ccc(Cl)cc1`: the viability with GUMC-403 [1] came out at 76.2. Further, in the experiment on GUMC-403 [2] (setting [3]), the “AC50 for reduction of cell viability” value amounted to 0.132 µM.
Consider `COC(=O)Nc1ccc(-c2nc(N3CCOCC3)c3cnn(C4CCN(Cc5cccnc5)CC4)c3n2)cc1`, for which the viability with GUMC-403 [1] is 23.5. In addition, the “AC50 for reduction of cell viability” value with GUMC-403 [2] (setting [3]) stood at 1.05 µM.
The matching figures for `CC(C)(O)c1cc2nc(-c3cnc(N)nc3)nc(N3CCOCC3)c2s1`: 33.5 and 0.148 µM.
The compound `COC1=CC=C2/C3=N/CCN3\C(=N/C2=C1OC)NC(=O)C4=CC=CN=C4` yielded a viability with GUMC-403 [1] of 64.7. Also, in the experiment on GUMC-403 [2] (setting [3]), the “AC50 for reduction of cell viability” value was found to be 5.9 µM.
On to `CCOc1cc2ncc(C#N)c(Nc3ccc(OCc4ccccn4)c(Cl)c3)c2cc1NC(=O)/C=C/CN(C)C`, for which, in the experiment on GUMC-403 [1], the viability was found to be 54.2. Moreover, the “AC50 for reduction of cell viability” value in the experiment with GUMC-403 [2] (setting [3]) was determined as 0.0743 µM.
Compound `Nc1nc(F)nc2c1ncn2[C@@H]1O[C@H](CO)[C@@H](O)[C@H]1O` yielded a viability in the experiment on GUMC-403 [1] of 47.8. In addition, in the experiment on GUMC-403 [2] (setting [3]), the “AC50 for reduction of cell viability” value is 3.72 µM.
In turn, `CCCCOc1c(C(=O)c2c(F)cc(C)cc2F)cnc2[nH]ncc12` gave a viability in the experiment with GUMC-403 [1] of 75.8. In addition, in the experiment on GUMC-403 [2] (setting [3]), the “AC50 for reduction of cell viability” value was 8.33 µM.
The matching figures for `CCNC(=O)c1noc(-c2cc(C(C)C)c(O)cc2O)c1-c1ccc(CN2CCOCC2)cc1`: 74.5 and 0.296 µM.
On the same counts, the results for `CNC(=O)c1cccc(-c2ccc3c(N4CCOC[C@@H]4C)nc(N4CCOC[C@@H]4C)nc3n2)c1` are 59 and 0.0235 µM.
Consider `CCN(CC)CCNC(=O)c1ccc2nc(-c3ccccc3)c(-c3ccc(CN4CCC(n5c(=O)[nH]c6ccccc65)CC4)cc3)nc2c1`, for which the viability in the experiment with GUMC-403 [1] was 3.89. The “AC50 for reduction of cell viability” value in the experiment on GUMC-403 [2] (setting [3]) worked out at 10.5 µM.
In turn, `Cc1ccc2nc(NCCN)c3ncc(C)n3c2c1` had a viability in the experiment on GUMC-403 [1] of 33.4. Also, the “AC50 for reduction of cell viability” value with GUMC-403 [2] (setting [3]) is 13.2 µM.
On the same counts, the results for `NCC(=O)Nc1ccc(-n2nc(C(F)(F)F)cc2-c2ccc3c(ccc4ccccc43)c2)cc1` are 1.75 and 26.4 µM.
Turning to `CO[C@H]1/C=C/O[C@@]2(C)Oc3c(C)c(O)c4c(O)c(c(/C=N\N5CCN(C6CCCC6)CC5)c(O)c4c3C2=O)NC(=O)/C(C)=C\C=C\[C@H](C)[C@H](O)[C@@H](C)[C@@H](O)[C@@H](C)[C@H](OC(C)=O)[C@@H]1C`, the viability in the experiment on GUMC-403 [1] turned out to be 56. The “AC50 for reduction of cell viability” value with GUMC-403 [2] (setting [3]) worked out at 0.296 µM.
Turning to `CN1CCN(c2cc(C(=O)Nc3ccc4c(c3)-c3c(c(C(N)=O)nn3-c3ccc(F)cc3)CC4)c(Cl)cn2)CC1`, in the experiment with GUMC-403 [1], the viability stood at 7.1. The “AC50 for reduction of cell viability” value with GUMC-403 [2] (setting [3]) was 5.26 µM.
`CCc1ccc(OCc2ccccc2C(=O)Nc2ccc3nc(C)cc(N)c3c2)cc1`: the viability in the experiment on GUMC-403 [1] turned out to be 4.25. Further, in the experiment with GUMC-403 [2] (setting [3]), the “AC50 for reduction of cell viability” value came out at 10.5 µM.
In the experiment on GUMC-403 [1], `CN(C)C1CCN(C(=O)c2ccc(NC(=O)Nc3nc(N4CCOCC4)nc(N4CCOCC4)n3)cc2)CC1` yielded a viability of 44.5. Moreover, in the experiment on GUMC-403 [2] (setting [3]), the “AC50 for reduction of cell viability” value was 0.0372 µM.
`O=C1\C=C(/OC2=C1C=CC=C2C3=CC=CC=C3)N4CCOCC4` came in with a viability with GUMC-403 [1] of 61.6. For the same compound, the “AC50 for reduction of cell viability” value in the experiment on GUMC-403 [2] (setting [3]) was 5.9 µM.
The matching figures for `COC(=O)/C=C/C(=O)OC`: 55.3 and 3.72 µM.
In the experiment on GUMC-403 [1], `N=C(NCCCCCCNC(=N)NC(=N)Nc1ccc(Cl)cc1)NC(=N)Nc1ccc(Cl)cc1` yielded a viability of 5.73. For the same compound, in the experiment on GUMC-403 [2] (setting [3]), the “AC50 for reduction of cell viability” value was determined as 26.4 µM.
Compound `CN(C)CCN(C)C(=O)c1ccc(NC(=O)Nc2ccc(-c3nc(N4CCOCC4)c4ccn(CC(F)(F)F)c4n3)cc2)cc1` displayed a viability with GUMC-403 [1] of 5.64. The “AC50 for reduction of cell viability” value in the experiment with GUMC-403 [2] (setting [3]) was found to be 0.118 µM.
